Source: ChEMBL document CHEMBL5543060, “Technologies of targeting histone deacetylase in drug discovery: Current progress and emerging prospects” (Eur J Med Chem, 2023)

Assays:
[1] = biological target: T1, Protein deacetylase HDAC6 (Homo sapiens, UniProt Q9UBN7); test: Inhibition of HDAC6 (unknown origin)
T1 sequence (Q9UBN7 whole entry): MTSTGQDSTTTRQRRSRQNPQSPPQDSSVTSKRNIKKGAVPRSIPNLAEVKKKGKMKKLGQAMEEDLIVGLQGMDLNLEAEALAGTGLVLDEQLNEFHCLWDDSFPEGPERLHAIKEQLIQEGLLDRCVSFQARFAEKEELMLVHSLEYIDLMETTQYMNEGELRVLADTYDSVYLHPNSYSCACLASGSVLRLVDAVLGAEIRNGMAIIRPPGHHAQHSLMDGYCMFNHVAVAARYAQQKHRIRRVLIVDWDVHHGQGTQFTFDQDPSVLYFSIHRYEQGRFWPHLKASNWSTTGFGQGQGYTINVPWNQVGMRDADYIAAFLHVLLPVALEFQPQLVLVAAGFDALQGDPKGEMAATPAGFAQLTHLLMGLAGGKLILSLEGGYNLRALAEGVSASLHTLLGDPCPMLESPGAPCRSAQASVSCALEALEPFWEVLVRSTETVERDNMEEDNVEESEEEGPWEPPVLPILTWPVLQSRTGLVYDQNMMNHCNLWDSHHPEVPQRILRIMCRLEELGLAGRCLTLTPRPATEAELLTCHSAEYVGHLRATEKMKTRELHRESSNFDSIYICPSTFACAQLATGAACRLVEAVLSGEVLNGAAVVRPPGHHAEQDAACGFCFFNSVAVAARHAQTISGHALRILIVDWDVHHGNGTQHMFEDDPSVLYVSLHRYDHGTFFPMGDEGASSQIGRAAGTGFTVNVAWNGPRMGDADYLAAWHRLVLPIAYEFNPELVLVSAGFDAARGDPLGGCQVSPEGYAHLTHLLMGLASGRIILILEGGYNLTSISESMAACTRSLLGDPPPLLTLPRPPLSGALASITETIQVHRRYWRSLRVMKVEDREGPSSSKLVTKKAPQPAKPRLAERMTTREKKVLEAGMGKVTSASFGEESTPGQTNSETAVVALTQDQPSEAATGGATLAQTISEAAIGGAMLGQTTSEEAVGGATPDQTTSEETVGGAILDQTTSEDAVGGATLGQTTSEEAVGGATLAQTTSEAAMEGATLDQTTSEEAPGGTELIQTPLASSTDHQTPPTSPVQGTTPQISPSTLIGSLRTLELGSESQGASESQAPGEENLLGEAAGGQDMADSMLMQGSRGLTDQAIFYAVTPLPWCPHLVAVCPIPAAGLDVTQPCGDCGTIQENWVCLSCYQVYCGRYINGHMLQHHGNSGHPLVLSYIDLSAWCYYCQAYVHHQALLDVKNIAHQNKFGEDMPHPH

Histone deacetylase 3 [2] = biological target: T2, Histone deacetylase 3 (Homo sapiens, UniProt O15379); test: Inhibition of HDAC3 (unknown origin) using biotinylated histone H3 KAc peptide as substrate pretreated with compound for 1 hrs followed by substrate addition measured after 1 hrs by microplate reader analysis by HTRF assay
Histone deacetylase 1 [3] = biological target: T3, Histone deacetylase 1 (Homo sapiens, UniProt Q13547); test: Inhibition of HDAC1 (unknown origin) using ZMAL (Z-Lys(Ac)-AMC as fluorogenic substrate pre-incubated for 30 mins measured for 1 hr by fluorescence based analysis
[4] = biological target: T1, Protein deacetylase HDAC6; test: Inhibition of human recombinant HDAC6 using fluorogenic HDAC substrate by fluorescence assay
[5] = biological target: von Hippel-Lindau disease tumor suppressor/Histone deacetylase 1 (Homo sapiens, UniProt Q13547+P40337); test: PROTAC activity at VHL/HDAC1 in human ES1 cells assessed as HDAC1 degradation by fluorescence based assay; type: cell-based
[6] = biological target: von Hippel-Lindau disease tumor suppressor/Protein deacetylase HDAC6 (Homo sapiens, UniProt Q9UBN7+P40337); test: Protac activity at VHL/HDAC6 in human MDA-MB-468 cells assessed as HDAC6 degradation measured after 14 hrs by Western blot analysis; type: cell-based
[7] = biological target: von Hippel-Lindau disease tumor suppressor/Histone deacetylase 2 (Homo sapiens, UniProt Q92769+P40337); test: PROTAC activity at VHL/HDAC2 in human ES1 cells assessed as HDAC2 degradation by fluorescence based assay; type: cell-based
[8] = biological target: Protein cereblon/Histone deacetylase 3 (Homo sapiens, UniProt O15379+Q96SW2); test: Protac activity at CRBN/HDAC3 in human MDA-MB-468 cells assessed as HDAC3 degradation measured after 14 hrs by Western blot analysis; type: cell-based
Homo sapiens = species: Homo sapiens; test: Inhibition of Topoisomerase 2 (unknown origin) at 50 to 100 uM incubated for 15 mins in the presence of ATP by electrophoretic analysis; conditions: dose 50-100 µM
Histone deacetylase 3 [9] = biological target: T2, Histone deacetylase 3; test: Inhibition of HDAC3 (unknown origin) at 10 uM relative to control
[10] = biological target: T4, Bromodomain-containing protein 4 (Homo sapiens, UniProt O60885); test: Inhibition of BRD4 BD2 (unknown origin) by TR-FRET assay
[11] = biological target: T4, Bromodomain-containing protein 4; test: Inhibition of BRD4 BD1 (unknown origin) incubated for 15 mins by TR-FRET analysis
Histone deacetylase 1 [12] = biological target: T3, Histone deacetylase 1; test: Inhibition of HDAC1 (unknown origin) by fluorescence based assay
Histone deacetylase 1 [13] = biological target: T3, Histone deacetylase 1; test: Inhibition of HDAC1 (unknown origin)
[14] = biological target: T5, Vascular endothelial growth factor receptor 2 (Homo sapiens, UniProt P35968); test: Inhibition of VEGFR2 (unknown origin) expressed in baculovirus infected insect cells using biotinylated-GGGGQDGKDYIVLPI peptide as substrate incubated for 1 to 4 hrs by TR-FRET assay
[15] = Metabolic stability in human Hepatocyte assessed as half life by LC-MS/MS analysis; type: ADME, cell-based; conditions: hepatocytes
[16] = biological target: Cyclin-dependent kinase 4 (Homo sapiens, UniProt P11802); test: Inhibition of CDK4 (unknown origin)
Histone deacetylase 8 [17] = biological target: T6, Histone deacetylase 8 (Homo sapiens, UniProt Q9BY41); test: Inhibition of human recombinant His-tagged HDAC8 expressed in Escherichia coli BL21 (DE3) using ArgHisLysLys(Ac) as substrate pre-incubated for 1 hr and measured after 1 hr by fluorescence based analysis
T6 sequence (Q9BY41 whole entry): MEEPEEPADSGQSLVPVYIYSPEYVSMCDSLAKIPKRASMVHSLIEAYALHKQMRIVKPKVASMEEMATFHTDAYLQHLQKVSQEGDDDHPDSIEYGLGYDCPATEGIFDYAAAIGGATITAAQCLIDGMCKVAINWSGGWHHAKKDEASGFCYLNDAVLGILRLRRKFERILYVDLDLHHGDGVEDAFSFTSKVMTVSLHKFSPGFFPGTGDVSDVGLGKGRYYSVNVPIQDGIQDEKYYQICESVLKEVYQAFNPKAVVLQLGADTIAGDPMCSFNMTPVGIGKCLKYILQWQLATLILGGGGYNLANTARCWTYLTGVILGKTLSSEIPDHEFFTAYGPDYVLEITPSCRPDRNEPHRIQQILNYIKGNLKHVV

Histone deacetylase 8 [18] = biological target: T6, Histone deacetylase 8; test: Inhibition of human HDAC8 using Boc-Lys (Ac)-AMC as substrate incubated for 60 mins by fluorimetric assay
[19] = biological target: T7, Protein cereblon/Histone deacetylase 8 (Homo sapiens, UniProt Q9BY41+Q96SW2); test: PROTAC activity at HDAC8/CRBN in human HCT-116 cells assessed as degradation of HDAC8 by Western blot analysis; type: cell-based
Histone deacetylase 2 = Histone deacetylase 2 (Homo sapiens, UniProt Q92769); test: Inhibition of human recombinant HDAC2 using Ac-RHKK(Acetyl)-AMC peptide as fluorogenic substrate pre-incubated for 30 mins followed by substrate addition and measured for 60 mins by fluorescence based analysis
Histone deacetylase 8 [20] = biological target: T6, Histone deacetylase 8; test: Inhibition of HDAC8 (unknown origin) using Fluoro-Substrate Peptide as substrate by fluorescence based assay
Histone deacetylase 1 [21] = biological target: T3, Histone deacetylase 1; test: Inhibition of human recombinant HDAC1 using Ac-RHKK(Acetyl)-AMC peptide as fluorogenic substrate pre-incubated for 30 mins followed by substrate addition and measured for 60 mins by fluorescence based analysis
[22] = biological target: T1, Protein deacetylase HDAC6; test: Inhibition of HDAC6 (unknown origin) using Ac-peptide as substrate preincubated for 15 mins followed by substrate addition and measured after 1 hr by fluorescence based assay
[23] = biological target: T7, Protein cereblon/Histone deacetylase 8; test: PROTAC activity at HDAC8/CRBN in human HCT-116 cells assessed as degradation of HDAC8 measured after 10 hrs in presence of E3 ligase inhibitor by Western blot analysis; type: cell-based
Histone deacetylase 1 [24] = biological target: T3, Histone deacetylase 1; test: Inhibition of human recombinant HDAC1 using fluorogenic substrate incubated for 30 mins by fluorescence based assay
[25] = biological target: Vascular endothelial growth factor receptor 1 (Homo sapiens, UniProt P17948); test: Inhibition of VEGFR1 (unknown origin)
[26] = biological target: T5, Vascular endothelial growth factor receptor 2; test: Inhibition of VEGFR2 (unknown origin) using poly (Glu,Tyr) 4:1 as substrate measured after 1 hr in presence of ATP by spectrophotometric analysis
[27] = biological target: T1, Protein deacetylase HDAC6; test: Inhibition of HDAC6 (unknown origin) using biotinylated histone H3 KAc peptide (1 to 21 residues) as substrate by HTRF assay
Histone deacetylase 3 [28] = biological target: T2, Histone deacetylase 3; test: Inhibition of HDAC3 (unknown origin)

Chain of von Hippel-Lindau disease tumor suppressor/Histone deacetylase 1 (Q13547 whole entry): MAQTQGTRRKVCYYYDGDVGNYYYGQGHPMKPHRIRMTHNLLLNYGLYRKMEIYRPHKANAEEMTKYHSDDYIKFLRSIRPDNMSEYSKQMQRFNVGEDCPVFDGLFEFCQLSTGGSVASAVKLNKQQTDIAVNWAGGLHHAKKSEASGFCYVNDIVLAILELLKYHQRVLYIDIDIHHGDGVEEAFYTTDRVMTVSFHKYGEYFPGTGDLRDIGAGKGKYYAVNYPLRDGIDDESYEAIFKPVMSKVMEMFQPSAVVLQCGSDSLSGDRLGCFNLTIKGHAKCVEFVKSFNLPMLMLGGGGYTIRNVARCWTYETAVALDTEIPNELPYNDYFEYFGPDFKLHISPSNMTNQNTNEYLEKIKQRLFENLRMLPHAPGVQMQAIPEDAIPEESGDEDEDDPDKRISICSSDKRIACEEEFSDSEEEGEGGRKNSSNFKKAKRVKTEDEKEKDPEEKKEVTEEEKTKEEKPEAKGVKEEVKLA
Chain of von Hippel-Lindau disease tumor suppressor/Histone deacetylase 1 (P40337 whole entry): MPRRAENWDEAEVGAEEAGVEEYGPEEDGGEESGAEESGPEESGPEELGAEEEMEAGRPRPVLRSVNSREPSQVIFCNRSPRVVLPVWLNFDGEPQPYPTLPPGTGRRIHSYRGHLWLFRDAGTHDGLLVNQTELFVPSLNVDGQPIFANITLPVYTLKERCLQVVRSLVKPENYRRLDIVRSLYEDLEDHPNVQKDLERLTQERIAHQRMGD
T3 sequence (Q13547 whole entry): as the sequence (Q13547 whole entry) above
T2 sequence (O15379 whole entry): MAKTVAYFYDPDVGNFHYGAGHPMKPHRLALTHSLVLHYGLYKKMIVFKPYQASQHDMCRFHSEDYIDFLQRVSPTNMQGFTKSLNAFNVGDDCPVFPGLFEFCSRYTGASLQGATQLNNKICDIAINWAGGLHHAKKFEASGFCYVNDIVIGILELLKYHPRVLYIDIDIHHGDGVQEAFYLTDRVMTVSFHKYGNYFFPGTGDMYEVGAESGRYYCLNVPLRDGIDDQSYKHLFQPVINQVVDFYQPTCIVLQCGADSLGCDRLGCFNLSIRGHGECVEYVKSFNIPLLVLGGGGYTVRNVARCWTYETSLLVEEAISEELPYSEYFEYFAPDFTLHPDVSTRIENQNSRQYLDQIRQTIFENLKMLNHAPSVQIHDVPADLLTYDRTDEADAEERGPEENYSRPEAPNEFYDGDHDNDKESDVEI
Chain of von Hippel-Lindau disease tumor suppressor/Protein deacetylase HDAC6 (P40337 whole entry, one chain of several): as the sequence (P40337 whole entry) above
Chain of von Hippel-Lindau disease tumor suppressor/Histone deacetylase 2 (Q92769 whole entry): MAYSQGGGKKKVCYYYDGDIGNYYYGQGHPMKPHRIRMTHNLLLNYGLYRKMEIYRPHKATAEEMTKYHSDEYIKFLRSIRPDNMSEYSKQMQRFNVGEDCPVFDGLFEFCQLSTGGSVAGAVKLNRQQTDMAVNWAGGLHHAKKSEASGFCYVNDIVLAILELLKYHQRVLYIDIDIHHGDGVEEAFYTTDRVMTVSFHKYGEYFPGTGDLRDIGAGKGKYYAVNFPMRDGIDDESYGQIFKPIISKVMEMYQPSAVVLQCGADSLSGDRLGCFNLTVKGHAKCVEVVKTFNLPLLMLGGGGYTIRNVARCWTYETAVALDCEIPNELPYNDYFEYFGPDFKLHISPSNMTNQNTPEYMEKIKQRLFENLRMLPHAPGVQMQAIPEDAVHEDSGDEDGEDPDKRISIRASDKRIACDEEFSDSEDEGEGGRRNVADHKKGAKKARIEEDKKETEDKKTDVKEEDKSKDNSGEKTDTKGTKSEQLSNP
Chain of von Hippel-Lindau disease tumor suppressor/Histone deacetylase 2 (P40337 whole entry): as the sequence (P40337 whole entry) above
T7 sequence (Q96SW2 whole entry, one chain of several): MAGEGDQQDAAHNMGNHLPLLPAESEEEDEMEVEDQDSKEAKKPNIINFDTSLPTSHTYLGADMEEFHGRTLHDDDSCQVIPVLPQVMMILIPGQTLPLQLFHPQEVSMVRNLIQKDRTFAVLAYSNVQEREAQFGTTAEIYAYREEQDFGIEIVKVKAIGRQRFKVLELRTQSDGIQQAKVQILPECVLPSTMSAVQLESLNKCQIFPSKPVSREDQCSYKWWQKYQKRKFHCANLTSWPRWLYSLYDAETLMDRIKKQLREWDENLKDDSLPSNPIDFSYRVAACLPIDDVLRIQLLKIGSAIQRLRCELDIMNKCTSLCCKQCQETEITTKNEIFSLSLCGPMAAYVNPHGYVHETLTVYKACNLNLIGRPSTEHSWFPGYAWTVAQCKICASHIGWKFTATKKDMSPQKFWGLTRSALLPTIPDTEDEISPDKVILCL
T5 sequence (P35968 whole entry): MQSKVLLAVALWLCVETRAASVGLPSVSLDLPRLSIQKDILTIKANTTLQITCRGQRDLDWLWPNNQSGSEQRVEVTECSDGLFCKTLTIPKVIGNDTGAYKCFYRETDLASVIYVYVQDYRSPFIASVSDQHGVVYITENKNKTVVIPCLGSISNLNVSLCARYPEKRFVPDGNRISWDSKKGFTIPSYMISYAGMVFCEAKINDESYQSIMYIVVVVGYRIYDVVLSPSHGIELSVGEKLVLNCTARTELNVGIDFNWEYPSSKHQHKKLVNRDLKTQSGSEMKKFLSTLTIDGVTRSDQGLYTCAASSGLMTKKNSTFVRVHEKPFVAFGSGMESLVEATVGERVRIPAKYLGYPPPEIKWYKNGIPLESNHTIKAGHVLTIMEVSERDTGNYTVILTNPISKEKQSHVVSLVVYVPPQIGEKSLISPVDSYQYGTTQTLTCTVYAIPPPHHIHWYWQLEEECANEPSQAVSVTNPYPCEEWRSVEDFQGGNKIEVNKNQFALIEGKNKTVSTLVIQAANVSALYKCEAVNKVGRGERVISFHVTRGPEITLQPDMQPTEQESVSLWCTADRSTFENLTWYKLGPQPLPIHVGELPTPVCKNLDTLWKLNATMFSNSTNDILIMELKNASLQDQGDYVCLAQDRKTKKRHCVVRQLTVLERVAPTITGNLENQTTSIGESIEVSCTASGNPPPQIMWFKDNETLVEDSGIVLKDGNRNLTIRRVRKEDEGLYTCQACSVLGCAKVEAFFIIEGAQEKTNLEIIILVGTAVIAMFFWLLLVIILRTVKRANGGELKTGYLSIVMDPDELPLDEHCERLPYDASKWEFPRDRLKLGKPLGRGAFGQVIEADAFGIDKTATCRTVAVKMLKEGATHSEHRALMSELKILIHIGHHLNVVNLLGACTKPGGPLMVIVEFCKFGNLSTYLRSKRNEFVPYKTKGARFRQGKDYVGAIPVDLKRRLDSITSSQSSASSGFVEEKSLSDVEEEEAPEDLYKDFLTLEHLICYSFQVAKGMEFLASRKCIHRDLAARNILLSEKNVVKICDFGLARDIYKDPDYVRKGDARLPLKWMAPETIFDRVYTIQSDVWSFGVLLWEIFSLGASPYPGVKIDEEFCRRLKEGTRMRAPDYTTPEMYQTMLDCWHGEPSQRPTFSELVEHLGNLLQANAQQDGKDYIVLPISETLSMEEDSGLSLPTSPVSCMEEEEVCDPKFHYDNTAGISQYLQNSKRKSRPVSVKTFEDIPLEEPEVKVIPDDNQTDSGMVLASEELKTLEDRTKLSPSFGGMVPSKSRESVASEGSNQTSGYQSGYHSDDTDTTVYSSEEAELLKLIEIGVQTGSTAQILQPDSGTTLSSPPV
Chain of Histone deacetylase 2 (Q92769 whole entry): as the sequence (Q92769 whole entry) above

O=C(CS)Nc1ccc(Cn2c3c(c4ccccc42)CS(=O)(=O)CC3)cc1
IC50 [1]: 130 nM

O=C(Cc1ccc2ncccc2c1)Nc1ccccc1O
IC50 (Histone deacetylase 3 [2]): 2000 nM

Cc1ccccc1/C=C/C(=O)Nc1ccc(C(=O)NS(=O)(=O)c2ccc(NCCCCCCC(=O)NO)c([N+](=O)[O-])c2)c(Oc2ccccc2)c1
IC50 (Histone deacetylase 1 [3]): 102 nM | IC50 [4]: 3 nM

O=C(CCCCCCNC(=O)c1ccc(NC(=O)COCCOCCNC(=O)COc2cccc3c2C(=O)N(C2CCC(=O)NC2=O)C3=O)cc1)NO (configuration not stated)
DC50 [5]: 174 nM | DC50 [6]: 27 nM | DC50 [7]: 248 nM | DC50 [8]: 139 nM

CN(c1ccccc1)c1ncc(NC(=O)CS)cn1
IC50 (Histone deacetylase 1 [3]): 2000 nM | IC50 [4]: 73 nM

O=C(/C=C/c1ccc(CSc2nc3[nH]ncc3c(=O)n2-c2ccccc2)cc1)NO
inhibition (Homo sapiens): 82.1% | inhibition (Histone deacetylase 3 [9]): 88%

Cc1sc2c(c1C)C(c1ccc(Cl)cc1)=N[C@@H](CC(=O)Nc1ccc(C(=O)Nc3ccccc3[N+](=O)[O-])cc1)c1nnc(C)n1-2
IC50 [10]: 74 nM | IC50 [11]: 720 nM | IC50 (Histone deacetylase 1 [12]): 290 nM

CCCNNC(=O)c1ccc(Nc2nccc(N(C)c3ccc4c(C)n(C)nc4c3)n2)cc1
IC50 (Histone deacetylase 1 [13]): 420 nM | IC50 [14]: 25 nM | half-life [15]: < 15 min

O=C(CCCCCCN1CCN(c2ccc(Nc3ncc(F)c(-c4cn(C5CCCC5)nn4)n3)cc2)CC1)NO
IC50 [16]: 23 nM

O=C(CCCN1CCN(C(=O)Nc2ccnc3ccccc23)CC1)NO
IC50 (Histone deacetylase 8 [17]): 2000 nM

O=C(COc1ccc2c(c1)OC1(CCN(Cc3cc(Cl)cc(Cl)c3)CC1)CC2=O)NO
IC50 (Histone deacetylase 8 [18]): 8000 nM | IC50 [4]: 80 nM

O=C1CCC(N2C(=O)c3cccc(NCCCCCCCCCCCNC(=O)Nc4cccc(SCc5cn(-c6cccc(C(=O)NO)c6)nn5)c4)c3C2=O)C(=O)N1 (configuration not stated)
DC50 [19]: 53 nM

CCCNNC(=O)c1ccc(-c2ccc(NC(=O)CCCCCCC(=O)N[C@H](C(=O)N3C[C@H](O)C[C@H]3C(=O)N[C@@H](C)c3ccc(-c4scnc4C)cc3)C(C)(C)C)cc2)cc1
DC50 [5]: 650 nM | DC50 [7]: 2000 nM

O=C(COc1ccc2c(c1)OC1(CCN(Cc3cc(F)cc(F)c3)CC1)CC2=O)NO
IC50 (Histone deacetylase 8 [18]): 9000 nM | IC50 [4]: 80 nM

O=C(Cc1ccc(C(=O)NO)cc1)Nc1ccc2ncnc(Nc3ccc(Br)c(F)c3)c2c1
IC50 (Histone deacetylase 1 [3]): 742 nM | IC50 [4]: 15 nM

Cc1ncsc1-c1ccc(CNC(=O)[C@@H]2C[C@@H](O)CN2C(=O)[C@@H](NC(=O)CCCCCCCCCCC(=O)Nc2ccc(C(=O)Nc3ccccc3N)cc2)C(C)(C)C)cc1
DC50 [5]: 17000 nM

COc1ccc(-c2ccc3c(NC(=O)CCCCCCC(=O)NO)n[nH]c3c2)cc1
IC50 (Histone deacetylase 2): 4 nM | IC50 (Histone deacetylase 8 [20]): 4 nM | IC50 (Histone deacetylase 1 [21]): 2 nM

CCCNNC(=O)/C=C/c1ccc(CNCCc2c(C)[nH]c3ccccc23)cc1
IC50 [22]: > 50 nM

COc1ccc(C(=O)NO)cc1NCc1ccc(OCc2cn(CCCCCNc3cccc4c3C(=O)N(C3CCC(=O)NC3=O)C4=O)nn2)cc1 (configuration not stated)
DC50 [23]: 250 nM

Cc1ncsc1-c1ccc([C@H](C)NC(=O)[C@@H]2C[C@@H](O)CN2C(=O)[C@@H](NC(=O)COCCOCCOCC(=O)NCc2cccc(CNc3ncc(-c4nnc(C(F)F)o4)cn3)c2)C(C)(C)C)cc1
DC50 [6]: 686 nM

Cc1c2ccc(N(C)c3ccnc(Nc4ccc(NC(=O)CCCCCCC(=O)NO)cc4)n3)cc2nn1C
IC50 (Histone deacetylase 1 [24]): 120 nM | IC50 [25]: 18 nM | IC50 [26]: 16 nM | IC50 [27]: 94 nM | half-life [15]: < 15 min

Nc1ccccc1NC(=O)Cc1ccc2ncccc2c1
IC50 (Histone deacetylase 3 [28]): 560 nM
